# Data from patent US20160176867A1, “MODIFIED BET-PROTEIN-INHIBITING DIHYDROQUINOXALINONES AND DIHYDROPYRIDOPYRAZINONES” (BAYER PHARMA AKTIENGESELLSCHAFT, priority 2013, published 2016).
# What was measured:
# [1] = target: T1, BRD4 bromo domain 2 [BRD4(2)] (Homo sapiens, UniProt O60885); test: BRD4/acetylated peptide H4 binding assay (TR-FRET), BRD4 bromo domain 2; conditions: inhibition of BRD4(2)/Ac-H4 peptide interaction
# T1 construct: N-terminally His6-tagged BRD4(2) (amino acids 357-445); made in house; host or cells: E. coli
# How it was run: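 IC50 comes from a 4-parameter fit over 0.1 nM–20 μM in duplicate, normalised to DMSO and no-protein controls. TR-FRET (Eu-streptavidin/anti-His-XL665) tracks His-tagged BRD4(2) 357-445 at 100 nM binding Ac-H4 peptide in HEPES pH 7.5 buffer. Incubation was 1 h at 22 °C, then at 4 °C ≥3 h up to overnight.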
# MOLM-13 cells = test: Cell proliferation assay (alamarBlue), MOLM-13; format: cell-based; conditions: Homo sapiens; MOLM-13 (acute myeloid leukaemia), 96 hours
# Experimental: (§1) In accordance with the invention, the ability of the substances to inhibit cell proliferation was determined. Cell viability was determined by means of the alamarBlue® reagent (Invitrogen) in a Victor X3 Multilabel Reader (Perkin Elmer). The excitation wavelength was 530 nm and the emission wavelength […].
# The MOLM-13 cells (DSMZ, ACC 554) were sown at a concentration of 4000 cells/well in 100 μl of growth medium (RPMI1640, 10% FCS) on 96-well microtitre plates.
# (§2) After overnight incubation at 37° C., the fluorescence values were determined (CI values). Then the plates were treated with various substance dilutions (1E-5 M, 3E-6 M, 1E-6 M, 3E-7 M, 1E-7 M, 3E-8 M, 1E-8 M) and incubated at 37° C. over 96 hours (MOLM-13, B16F10, CHL-1 cells) or 120 hours (MOLP-8 cells). Subsequently, the fluorescence values were determined (CO values). For the data analysis, the CI values were subtracted from the CO values and the results were compared between cells which had been treated with various dilutions of the substance or only with buffer solution. The IC50 values (substance concentration needed for 50% inhibition of cell proliferation) were calculated therefrom.
# MOLP-8 cells = test: Cell proliferation assay (alamarBlue), MOLP-8; format: cell-based; conditions: Homo sapiens; MOLP-8 (multiple myeloma), 120 hours
# Experimental: as §1
# The MOLP-8 cells (DSMZ, ACC 569) were sown at a concentration of 4000 cells/well in 100 μl of growth medium (RPMI1640, 20% FCS) on 96-well microtitre plates.
# as §2
# B16F10 cells = test: Cell proliferation assay (alamarBlue), B16F10; format: cell-based; conditions: Mus musculus, B16-F10; B16F10 (melanoma, BRAF wild-type), 96 hours
# Experimental: as §1
# The B16F10 cells (ATCC, CRL-6475) were sown at a concentration of 300-500 cells/well in 100 μl of growth medium (DMEM with phenol red, 10% FCS) on 96-well microtitre plates.
# as §2
IC50 [1],IC50 (MOLM-13 cells),IC50 (B16F10 cells),SMILES,IC50 (MOLP-8 cells)
68 nM,195 nM,544 nM,"C[C@@H]1C(=O)N(C)c2ccc(Nc3cccc(S(=O)(=O)N4CCN(C)CC4)c3)nc2N1C1CCOCC1 [Example 12, (3R)-1,3-Dimethyl-6-({3-[(4-methylpiperazin-1-yl)sulphonyl]phenyl}amino)-4-(tetrahydro-2H-pyran-4-yl)-3,4-dihydropyrido[2,3-b]pyrazin-2(1H)-one]",126 nM
52 nM,175 nM,556 nM,"C[C@@H]1C(=O)N(C)c2ccc(Nc3cccc(S(=O)(=O)NC4CCN(C)CC4)c3)nc2N1C1CCOCC1 [Example 20, 3-{[(3R)-1,3-Dimethyl-2-oxo-4-(tetrahydro-2H-pyran-4-yl)-1,2,3,4-tetrahydropyrido[2,3-b]pyrazin-6-yl]amino}-N-(1-methylpiperidin-4-yl)benzenesulphonamide]",190 nM
62 nM,233 nM,122 nM,"COc1ccc(CN2c3cc(Nc4cccc(S(=O)(=O)N(C)C)c4)ccc3N(C)C(=O)[C@H]2C)cc1 [Example 10, 3-{[(3R)-4-(4-Methoxybenzyl)-1,3-dimethyl-2-oxo-1,2,3,4-tetrahydroquinoxalin-6-yl]amino}-N,N-dimethylbenzenesulphonamide]",82 nM
91 nM,296 nM,695 nM,"C[C@@H]1C(=O)N(C)c2ccc(Nc3cccc(C(=O)NC4CN(C)C4)c3)nc2N1C1CCCC1 [Example 3, 3-{[(3R)-4-Cyclopentyl-1,3-dimethyl-2-oxo-1,2,3,4-tetrahydropyrido[2,3-b]pyrazin-6-yl]amino}-N-(1-methylazetidin-3-yl)benzamide]",187 nM
149 nM,78 nM,312 nM,"CC(C)N1c2nc(Nc3cccc(S(=O)(=O)NCCN(C)C)c3)ccc2N(C)C(=O)[C@H]1C [Example 55, N-[2-(dimethylamino)-ethyl]-3-{[(3R)-4-isopropyl-1,3-dimethyl-2-oxo-1,2,3,4-tetrahydro-pyrido[2,3-b]pyrazin-6-yl]amino}benzene-sulphonamide]",48 nM
99 nM,97 nM,423 nM,"CC(C)N1c2nc(Nc3cccc(S(=O)(=O)NC4CCN(C)CC4)c3)ccc2N(C)C(=O)[C@H]1C [Example 51, 3-{[(3R)-4-isopropyl-1,3-dimethyl-2-oxo-1,2,3,4-tetrahydropyrido[2,3-b]pyrazin-6-yl]amino}-N-(1-methylpiperidin-4-yl)benzenesulphonamide]",58 nM
59 nM,326 nM,506 nM,"C[C@@H]1C(=O)N(C)c2ccc(Nc3cccc(C(=O)N[C@H]4CC[C@H](N5CCN(CC6CC6)CC5)CC4)c3)nc2N1C1CCCC1 [Example 5, 3-{[(3R)-4-Cyclopentyl-1,3-dimethyl-2-oxo-1,2,3,4-tetrahydropyrido[2,3-b]pyrazin-6-yl]amino}-N-{trans-4-[4-(cyclopropylmethyl)piperazin-1-yl]cyclohexyl}benzamide]",136 nM
89 nM,271 nM,258 nM,"C[C@@H]1C(=O)N(C)c2ccc(Nc3cccc(S(=O)(=O)N4CCOCC4)c3)cc2N1C1CCOCC1 [Example 8, (3R)-1,3-Dimethyl-6-{[3-(morpholin-4-ylsulphonyl)phenyl]amino}-4-(tetrahydro-2H-pyran-4-yl)-3,4-dihydroquinoxalin-2(1H)-one]",
71 nM,149 nM,178 nM,"C[C@@H]1C(=O)N(C)c2ccc(Nc3cccc(S(=O)(=O)N(C)C)c3)cc2N1C1CCOCC1 [Example 7, 3-{[(3R)-1,3-Dimethyl-2-oxo-4-(tetrahydro-2H-pyran-4-yl)-1,2,3,4-tetrahydroguinoxalin-6-yl]amino}-N,N-dimethylbenzenesulphonamide]",
